This assay has as its system Pseudomonas aeruginosa ATCC 9027. Nature of the assay: Preservation efficacy test in sterile distilled water, drop plate. The assay is classed as cell-based. Conditions: 7 days. The protocol: In the following example, the following test organisms were used: • Pseudomonas aeruginosa ATCC 9027 • Aspergillus brasiliensis ATCC 16404 [table] Bacteria were harvested and prepared in diluent (sterile distilled water) to obtain a final concentration of 1.0×10^6 to 5.0×10^6 cfu/ml. [table] […] Each sample was inoculated at t=0 with a known concentration of micro-organism. Each inoculated sample was then mixed until a homogenous mixture was obtained. […] The solution was left for 15 minutes. Subsequent dilutions were prepared by serial dilution of 0.1 ml into 0.9 ml of neutralising broth. Bacteria were serially diluted to 10^−4, Fungi were serially diluted to 10^−3. Each serial dilution was thoroughly mixed and 25 μl drops were aliquoted onto the surface of pre-prepared agar plates. Plates were prepared in sextupicate for each sample dilution. The agar plates were allowed to dry, then inverted and incubated under conditions appropriate for the test microorganisms. CFU/ml was calculated taking into account dilution factors. […] The lower and upper limits for drop plating were only employed on the highest and lowest dilution factor plates.

Some results are limits rather than exact numbers.

For `CCCCOC(=O)CCC(C)=O` [Butyl Levulinate, butyl levulinate], the Log reduction by setting is: (pH 7, Butyl Levulinate 500 ppm, Potassium Sorbate 0 ppm) less than 0.03; (pH 7, Butyl Levulinate 1000 ppm, Potassium Sorbate 0 ppm) less than 0.03; (pH 7, Butyl Levulinate 1500 ppm, Potassium Sorbate 0 ppm) less than 0.03; (pH 7, Butyl Levulinate 1500 ppm, Sodium Benzoate 0 ppm) less than 0.38; (pH 7, Butyl Levulinate 2000 ppm, Potassium Sorbate 0 ppm) less than 0.03; (pH 7, Butyl Levulinate 2000 ppm, Sodium Benzoate 0 ppm) less than 0.38. The Log reduction by setting is: (pH 7, Butyl Levulinate 2500 ppm, Potassium Sorbate 0 ppm) less than 0.03; (pH 7, Butyl Levulinate 2500 ppm, Sodium Benzoate 0 ppm) less than 0.38; (pH 8, Butyl Levulinate 500 ppm, Potassium Sorbate 0 ppm) less than 0.33; (pH 8, Butyl Levulinate 500 ppm, Sodium Benzoate 0 ppm) less than 0.05; (pH 8, Butyl Levulinate 1000 ppm, Potassium Sorbate 0 ppm) less than 0.33; (pH 8, Butyl Levulinate 1000 ppm, Sodium Benzoate 0 ppm) less than 0.05. Moreover, the Log reduction is on record as less than 0.33 (pH 8, Butyl Levulinate 1500 ppm, Potassium Sorbate 0 ppm); less than 0.05 (pH 8, Butyl Levulinate 1500 ppm, Sodium Benzoate 0 ppm); less than 0.33 (pH 8, Butyl Levulinate 2000 ppm, Potassium Sorbate 0 ppm); less than 0.05 (pH 8, Butyl Levulinate 2000 ppm, Sodium Benzoate 0 ppm); less than 0.33 (pH 8, Butyl Levulinate 2500 ppm, Potassium Sorbate 0 ppm); less than 0.05 (pH 8, Butyl Levulinate 2500 ppm, Sodium Benzoate 0 ppm).

Values taken from US20250040543A1, “Preservative Composition” (ARXADA AG, priority 2021, published 2025).
